According to patent publication US8652505B2, “Coating for medical implants” (Southwest Research Institute, priority 2010, dated 2014):

Tested on: methicillin resistant Staphylococcus aureus (MRSA) bacteria (strain: ATCC#33591)
Assay: Bacteria inhibition test on Mueller-Hinton agar (zone of inhibition / MIC)
Type: cell-based
Experimental: Bacteria inhibition tests were performed on Agar according to the standard method by using methicillin resistant Staphylococcus aureus (MRSA) bacteria (strain: ATCC#33591) in order to determine if the released vancomycin was active and unaffected by the coating and polymerization procedures described herein. The bacteria suspensions were cultured onto separate Mueller-Hinton agar plates at a concentration of 1−2×10^8 CFU/mL (CFU=colony forming unites) and incubated at 37° C. Released vancomycin, free vancomycin, and a standard vancomycin disk (loaded with 30 μg of vancomycin) were compared. After 24 hrs, the zone of inhibition was measured. To measure the sensitivity or the minimum inhibition concentration (MIC), different concentrations of vancomycin were loaded onto cellulose discs (40, 20, 10, 5, 2.5, and 1.25 μg per disc, N=3) and the zone of inhibition was measured.

Q: How did the “activity of released drug in bacteria inhibition test” value (zone of inhibition after 24 hrs, 37° C., compared with free vancomycin and standard 30 μg disk) turn out when `CN[C@H](CC(C)C)C(=O)N[C@H]1C(=O)N[C@@H](CC(N)=O)C(=O)N[C@H]2C(=O)N[C@H]3C(=O)N[C@H](C(=O)N[C@H](C(=O)O)c4cc(O)cc(O)c4-c4cc3ccc4O)[C@H](O)c3ccc(c(Cl)c3)Oc3cc2cc(c3O[C@@H]2O[C@H](CO)[C@@H](O)[C@H](O)[C@H]2O[C@H]2C[C@](C)(N)[C@H](O)[C@H](C)O2)Oc2ccc(cc2Cl)[C@H]1O` [released drug, vancomycin] was run?
A: same activity as the free drug and standard drug

Q: For `CN[C@H](CC(C)C)C(=O)N[C@H]1C(=O)N[C@@H](CC(N)=O)C(=O)N[C@H]2C(=O)N[C@H]3C(=O)N[C@H](C(=O)N[C@H](C(=O)O)c4cc(O)cc(O)c4-c4cc3ccc4O)[C@H](O)c3ccc(c(Cl)c3)Oc3cc2cc(c3O[C@@H]2O[C@H](CO)[C@@H](O)[C@H](O)[C@H]2O[C@H]2C[C@](C)(N)[C@H](O)[C@H](C)O2)Oc2ccc(cc2Cl)[C@H]1O` [vancomycin], which MIC (vancomycin loaded on cellulose discs, against S. Aureus, FIG. 10) is on record?
A: 0.5 to 1 µg
